This note sets out measurements from patent publication EP1860442A2, “Neurosteroids as markers for Alzheimer's disease” (Georgetown University, priority 2000, dated 2001).

For experiment [1], the system named is MGM-1 cells. The experiment can be described thus: β-Amyloid regulation of the alternative pathway: ROS (2,7-DCF fluorescence). Type of experiment: cell-based, human. The conditions noted are these: 50 mM Aβ versus control, p < 0.01. The procedure:
β-Amyloid Regulation of the Alternative Pathway: MGM-1 cells were plated on 96 well (~5,000 cells/well, for ROS measurements) or 24 well (~15,000 cells/well, for D measurements) plates (Coming Costar, Acton, MA). At the same time, 1mg Ab (Ab (1-42), AnaSpec Inc., San Jose, CA) was dissolved in 0.5 ml serum-free media and incubated at 4C for aggregation. 24 hours later, cells were incubated in DMEM with 10% fetal bovine serum and […] or […] and 10 mM Vitamin E (Sigma, St. Louis, MO). Control samples were incubated in DMEM with 10% FBS. Cells were incubated at 37C and 6% CO2 for at least 12 hours and processed for ROS generation (see below) or D synthesis as described above for the alternative experiments.
Treatment media was removed and the cells were washed with PBS. The fluorescent probe 2,7- dichlorofluorescin diacetate (2,7-DCF, Molecular Probes, Inc., Eugene, OR) was used to measure levels of oxidative stress (48). Cells were incubated with […] 2,7-DCF, fluorescence was measured at 485nm/535nm using the Victor^2 Multilabel Counter (EG&G Wallac, Gaithersburg, MD) and values of cellular fluorescence were obtained.

Experiment [2] concerns MGM-1 cells. As to the kind of experiment: β-Amyloid regulation of the alternative pathway: D synthesis. Type of experiment: cell-based, human. To be noted: 50 mM Aβ versus control, p < 0.01. The method, then: Alternative Pathway: To determine the amount ofD synthesized by the alternative pathway cells were treated as previously described (15). In brief, cells were washed and oligodendrocytes and astrocytes were incubated with increasing concentrations of FeSO4 in serum free media, with and without SU 10603 (10 mM); neurons were incubated in serum free media containing 5 mM P plus FeSO4, with and without 10 mM SU 10603. After two hours, cells and media were homogenized and extracted as described above. Extracts were run on C18 TLC plates (Whatman, Clifton, NJ) with a mobile phase of 95% methanol (v/v); radiolabeled standards for P, progesterone, and D were run on each plate, and appropriate steroid fractions were collected for each sample. TLC fractions were extracted with 2 ml diethyl ether (Fluka, New York) and evaporated. TLC extracts were assayed by specific radioimmunoassay (RIA). […]
RIA using antibodies specific for each steroid (ICN Pharmaceuticals, Costa Mesa, CA Mesa) was used to measure P, progesterone and D levels. The data were analyzed using the IBM-PC RIA Data Reduction Program (version 4.1) from Jaffe and Associates (Silver Spring, MD). Levels of β-amyloid species in AD and control brain samples were analyzed using 4G8 (Senetex PLC, Napa, CA), a monoclonal antibody to β-amyloid peptide that recognizes amino acids 17-24. […]

“Aβ: β-amyloid peptide Ab (1-42), AnaSpec Inc., aggregated; a component of Alzheimer's disease plaques”: in the experiment with MGM-1 cells [1], the “2,7-DCF fluorescence (ROS)” value was “significant increase”. Moreover, the D levels entry in the experiment with MGM-1 cells [2] was “increased D levels significantly over control”.
